Measurements published in PubChem BioAssay (NCI).
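Protocol summary: plate cells (96-well), add compound at 5 concentrations, incubate 48 h, interpolate endpoints linearly. Abbreviation: GI50, concentration required for 50% inhibition of growth. Definition used: TGI = concentration required for complete inhibition of growth.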

Experiments:
Test in all cases: DTP human tumour cell line panel, 48 h
CCRF-CEM leukemia = tested on: CCRF-CEM leukemia
HL-60(TB) leukemia = tested on: HL-60(TB) leukemia
IGROV1 ovarian = tested on: IGROV1 ovarian
KM12 colon = tested on: KM12 colon
OVCAR-4 ovarian = tested on: OVCAR-4 ovarian
SF-268 CNS = tested on: SF-268 CNS
SN12C renal = tested on: SN12C renal
SNB-19 CNS = tested on: SNB-19 CNS
UACC-257 melanoma = tested on: UACC-257 melanoma
UACC-62 melanoma = tested on: UACC-62 melanoma

Structure (SMILES) | GI50 (CCRF-CEM leukemia) [µM] | TGI (CCRF-CEM leukemia) [µM] | GI50 (HL-60(TB) leukemia) [µM] | TGI (HL-60(TB) leukemia) [µM] | GI50 (IGROV1 ovarian) [µM] | TGI (IGROV1 ovarian) [µM] | GI50 (KM12 colon) [µM] | TGI (KM12 colon) [µM] | GI50 (OVCAR-4 ovarian) [µM] | TGI (OVCAR-4 ovarian) [µM] | GI50 (SF-268 CNS) [µM] | TGI (SF-268 CNS) [µM] | GI50 (SN12C renal) [µM] | TGI (SN12C renal) [µM] | GI50 (SNB-19 CNS) [µM] | TGI (SNB-19 CNS) [µM] | GI50 (UACC-257 melanoma) [µM] | TGI (UACC-257 melanoma) [µM] | GI50 (UACC-62 melanoma) [µM] | TGI (UACC-62 melanoma) [µM]
O=C(Nc1ccc(Cl)cc1)c1cc2c(cc1O)[nH]c1ccccc12 | 4.37 | > 100 | 4.43 | > 100 | 4.31 | 18.7 | 2.89 | 7.27 | 4.66 | 17.6 | 3.92 | 14.7 | 2.93 | 11.3 | 3.43 | 30.6 | 2.48 | 6.66 | 2.49 | 8.89
NC1C2C(CC(=O)O)OCC=C3CN4CCC1(C(=O)C(=O)O)C4CC32 (stereo not given) |  | > 100 |  | > 100 |  | > 100 |  | > 100 |  | > 100 |  | > 100 |  | > 100 |  | > 100 |  | > 100 |  | > 100
O=CN1N=C(c2ccc(Nc3ccnc4cc(Cl)ccc34)cc2)CC1c1ccccc1 (stereo not given) | 2.51 | 8.55 | 2.66 | 6.21 | 9.36 | > 100 | 3.41 | 56.9 | 3.88 | > 100 | 3.96 | > 100 | 3.8 | > 100 | 5.13 | > 100 | 10.1 | > 100 | 1.55 | 4.16
COc1cc2c(c(OC)c1OC)-c1ccc(NNC(=S)N(Cc3cccc(C[N+](Cc4cccc(CNC56CC7CC(CC(C7)C5)C6)c4)(Cc4cccc(CNC56CC7CC(CC(C7)C5)C6)c4)Cc4cccc(CN(C(=S)NNc5ccc6c(cc5=O)[C@@H](NC(C)=O)CCc5cc(OC)c(OC)c(OC)c5-6)C56CC7CC(CC(C7)C5)C6)c4)c3)C34CC5CC(CC(C5)C3)C4)c(=O)cc1[C@@H](NC(C)=O)CC2 (stereo not given in full) | 0.904 | 2.47 | 0.168 | 1.03 | 1.45 | 5.95 | 1.08 | 4.52 | 2.17 | 8.94 | 1.37 | 6.54 | 2.23 | 6.9 | 1.65 | 6.2 | 4.51 | 10.3 | 1.61 | 6.38
COC(=O)Nc1nc2ccc(Oc3ccc(NC(=O)Nc4cccc(Br)c4)cc3)cc2[nH]1 | 1.59 | > 25 | 1.06 | > 10.6 | 3.69 | 11.8 | 0.119 | 3.97 | 3.39 | 7.42 | 3.98 | > 25 | 4.65 | > 25 | 8.31 | > 25 | 1.95 | > 16 | 0.906 | 7.41
NC(=O)C(Br)CBr (stereo not given) | 1.05 | 6.93 | 0.728 | 3.05 | 1.59 | 4.78 | 7.63 | 21 | 1.25 | 2.55 | 2.65 | 8.29 | 3.93 | 20.6 | 15.5 | 29.6 | 1.64 | 3.27 | 2.14 | 6.07
CC1=C(C(=O)Nc2ccc3[nH]ncc3c2)C(c2ccc(F)cc2)NC(=O)N1 (stereo not given) | > 25 | > 25 | > 25 | > 25 | > 25 | > 25 | > 25 | > 25 | > 25 | > 25 | 23.4 | > 25 | > 25 | > 25 | > 25 | > 25 | > 25 | > 25 | > 25 | > 25
CC1=C(C)CC2(SC1)C(=O)c1ccccc1C2=O |  | > 100 |  | > 100 |  | > 100 |  | > 100 |  | > 100 |  | > 100 |  | > 100 |  | > 100 |  | > 100 |  | > 100
O=C(O)CNS(=O)(=O)c1ccc(NC(=O)c2ccc(F)cc2)cc1 |  | > 100 |  | > 100 |  | > 100 |  | > 100 |  | > 100 |  | > 100 |  | > 100 |  | > 100 |  | > 100 |  | > 100
COc1cc2c(cc1OCCCOC1=C=C=C(c3ccc4c(c3)c3cc(-c5ccc(OCCCOc6cc7c(cc6OC)C(=O)N6CCC[C@H]6C=N7)cc5)ccc3n4S(=O)(=O)c3ccc(C)cc3)C=C1)N=C[C@@H]1CCCN1C2=O | 0.19 | > 50 | 0.826 | > 11.4 | 1.8 | 8.69 | 1.46 | 4.3 | 3.58 | 30.9 | 0.934 | 2.85 | 2 | 9.98 | 3.5 | 38.7 | 6.71 | 15.6 | 1.89 | 8.76
CCN(CC)c1ccc(N=C2C=CC(=O)c3ncccc32)c(C)c1 |  | 14.6 |  | 5.15 |  | 21 |  | 27.1 |  | 4.93 |  | 21.3 |  | 20.1 |  | 29.8 |  | 15 |  | 16.8
CC1CCC2(NC1)OC1CC3[C@@H]4CC=C5C=CCC[C@]5(C)C4CC[C@]3(C)C1C2C (stereo not given in full) |  | 55.4 |  | 29.7 |  | > 100 |  | 44 |  | 51 |  | > 100 |  | 85.8 |  | > 100 |  | 49 |  | 42.5
CN(C)c1ccc(C(=O)c2ccc(N(C)C)c(N)c2)cc1N | 1.93 | > 100 | 1.29 | 9.08 | 1.86 | > 42.5 | 0.785 | 43.4 | 6.26 | > 100 | 10.2 | > 100 | 6.08 | > 100 | 16.7 | > 39.3 | > 100 | > 100 | 2.32 | > 64.5
Cc1[nH]c(C(=O)Nc2ccc(C(=O)N3CCNCC3)cc2OC(C)C)c(Cl)c1Cl | 2.57 | 6.94 | 2.21 | 4.44 | 1.58 | 3.49 | 1.84 | 3.46 | 3.57 | 11.8 | 1.85 | 3.81 | 1.94 | 4.28 | 1.89 | 3.95 | 1.79 | 3.52 | 1.8 | 3.38
Cc1nc2cncc(C#Cc3cncc(C(=O)Nc4ccc(CN5CCN(C)CC5)c(C(F)(F)F)c4)c3)c2nc1C | 1.12 | 12.5 | 0.237 | 1.38 | 0.206 | 1.29 | 0.005 | 2.98 | 0.162 | 6.74 | 0.552 | 18.8 | 0.275 | 17 | 5.08 | 13.2 | 0.549 | 3.56 | 0.24 | 1.47
NS(=O)(=O)c1ccc(C2C3=C(CCCC3=O)OC3=C2C(=O)c2ccccc2C3=O)cc1 (stereo not given) | 0.383 | 2.09 | 0.254 | 0.559 | 0.347 | 1.2 | 1.22 | 3.27 | 0.19 | 0.824 | 0.386 | 1.66 | 0.319 | 1.03 | 1.24 | 2.52 | 0.275 | 0.922 | 0.24 | 0.567
COc1cc(C(=O)/C=C/c2c(-c3ccc(F)cc3)nc3sc(C)cn23)cc(OC)c1OC | 7.19 | > 100 | 2.87 | > 100 | 8.71 | > 100 | 3.63 | > 100 | 2.28 | > 100 | 15.2 | > 100 | 9.01 | > 100 | 87.7 | > 100 | 4.75 | > 100 | 2.91 | > 100
OCCCCC#Cc1ccccc1C#Cc1ccccc1F | 24.6 | 48.7 | 22.2 | 44.9 | 15 | 33.1 | 18.8 | 37.7 | > 100 | > 100 | 25.3 | 62.4 | 18.1 | 40.4 | 17.5 | 36.8 | 18.9 | 39.2 | 16.5 | 32.6
O=c1[nH]c(=O)n(C2CC(O)C(CO)O2)cc1C(OCC(F)(F)F)OCC(F)(F)F (stereo not given) |  | > 100 |  | > 100 |  | > 100 |  | > 100 |  | > 100 |  | > 100 |  | > 100 |  | > 100 |  | > 100 |  | > 100
COc1ccc(Nc2ccnc(NCCNc3ccnc4cc(Cl)ccc34)n2)cc1 | 1.65 | 8.23 | 2.48 | 7.06 | 1.99 | 11 | 3.72 | 15.2 | 1.45 | 13.8 | 3.65 | 15.6 | 3.73 | 18.4 | 2.86 | 12 | 1.97 | 4.25 | 1.8 | 3.62
